This is an account of results in PMC10197133, “Synthesis, Computational Insights, and Evaluation of Novel Sigma Receptors Ligands” (ACS Chemical Neuroscience, 2023).

Entries after “also recorded” stand apart in the source; their conditions may differ.

As a reminder, the Ki is a measure of affinity in units of concentration, obtained from inhibition or displacement.

One assay concerns the target T1, S2R (Rattus norvegicus, UniProt Q5U3Y7).
T1 construct: from tissue; host or cells: rat liver homogenate (male Sprague-Dawley)
T1 sequence (Q5U3Y7 1-176): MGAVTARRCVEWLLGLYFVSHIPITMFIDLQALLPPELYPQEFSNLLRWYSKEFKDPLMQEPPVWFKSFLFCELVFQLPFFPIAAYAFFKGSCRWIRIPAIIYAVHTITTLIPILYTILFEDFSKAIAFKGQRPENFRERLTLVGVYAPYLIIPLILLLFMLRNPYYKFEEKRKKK
Put plainly: S2R radioligand binding assay, [3H]DTG with (+)-pentazocine as S1R masking agent, liver homogenates. To be noted: read-out: Ki (nM) ± SD S2R. Set-up: species or system male Sprague-Dawley rats. On the procedure:
(§1) The Ki-values were calculated with the program GraphPad Prism 7.0 (GraphPad Software, San Diego, California). The Ki-values are given as mean value ± SD from at least two independent experiments performed in duplicate.

Assay [1] has as its target T2, S1R (Rattus norvegicus, UniProt Q9R0C9). Put plainly: S1R radioligand binding assay, [3H](+)-pentazocine, liver homogenates. Set-up: from tissue; host or cells: rat liver homogenate (male Sprague-Dawley); species or system male Sprague-Dawley rats. Conditions: for KiS2R/KiS1R (preference for S1R over S2R): ratio of S2R Ki to S1R Ki; for Ki: read-out: Ki (nM) ± SD S1R. On the procedure: as §1

The test system of assay [2] is capsaicin-induced mechanical hypersensitivity in mice. Put plainly: Capsaicin-induced secondary mechanical hypersensitivity (allodynia). The format is in vivo, female CD1 mice. To be noted: for S1R functional profile in vivo: concluded from the capsaicin model; for antiallodynic effect, compound administered alone / dose reaching full reversal of mechanical hypersensitivity (maximum antiallodynic effect): s.c.; for antiallodynic effect, compound administered alone: 30 min before capsaicin 1 μg i.pl., paw withdrawal latency at 0.5 g force, 4b 5–20 mg/kg, PRE-084 32 mg/kg; for antiallodynic effect when associated with the S1R agonist PRE-084: PRE-084 32 mg/kg s.c. 5 min before, BD-1063 40 mg/kg, 8f and 5b 20 mg/kg s.c.; for dose reaching full reversal of mechanical hypersensitivity (maximum antiallodynic effect): capsaicin 1 μg i.pl., mice. On the procedure:
We used capsaicin-induced secondary hypersensitivity (allodynia) as a pain model. It has been described that the increase in mechanical sensitivity in the area surrounding capsaicin injection (area of secondary allodynia) is due to central sensitization, which is a relevant process for chronic pain development and maintenance.[48]
Experiments were performed in female CD1 mice (Charles River, Barcelona, Spain) weighing 25–30 g. The mice were acclimated in our animal facilities for at least 1 week before testing and housed in a room under controlled environmental conditions: 12/12 h day/night cycle, air replacement every 20 min, and regulated temperature (22 ± 2 °C). The animals were fed a standard laboratory diet (Harlan Teklad Research Diet, Madison, Wisconsin) and tap water ad libitum until the beginning of the experiments. Testing was always performed from 9.00 to 15.00 h and randomly throughout the oestrous cycle. Animal care was made in accordance with institutional (Research Ethics Committee of the University of Granada, Spain), regional (Junta de Andalucía, Spain), and international standards (European Communities Council Directive 2010/63).
As selective S1R drugs, we used the S1R antagonist BD-1063 (1-[2-(3,4-dichlorophenyl)ethyl]-4-methylpiperazine dihydrochloride) and the S1R agonist PRE-084 (2-(4-morpholinethyl)-1-phenyl cyclohexane carboxylate hydrochloride) (both provided by Tocris Cookson, Bristol, U.K.).[57] The standard or experimental compounds were dissolved in 5% DMSO (Merck KGaA, Darmstadt, Germany) in physiological sterile saline (0.9% NaCl). They were prepared immediately before the start of the experiments and injected s.c. in a volume of 5 mL/kg into the interscapular area.
To test for the antiallodynic effects of BD-1063, 4b, 5b, or 8f, they were administered 30 min before the injection of capsaicin, used as the chemical algogen. To test the effects of PRE-084 or 4b on the antiallodynia induced by BD-1063, 8f, or 5b, the former were administered 5 min before the latter. When the effect of the association of several drugs was assessed, each injection was performed in different areas of the interscapular zone to avoid mixture of the drug solutions and any physicochemical interaction between them.
Capsaicin (Sigma-Aldrich Química S.A.) was dissolved in 1% DMSO in physiological sterile saline to a concentration of 0.05 μg/μL (i.e., 1 μg per mouse). Capsaicin solution was injected intraplantarly (i.pl.) into the right hind paw proximate to the heel, in a volume of 20 μL using a 1710 TLL Hamilton microsyringe (Teknokroma, Barcelona, Spain) with a 30^1/2-gauge needle. Control animals were injected with the same volume of the vehicle of capsaicin.
Animals were placed for 2 h in individual black-walled test compartments, which were situated on an elevated mesh-bottom platform with a 0.5-cm^2 grid to provide access to the ventral surface of the hind paws. Punctate mechanical stimulation was applied with a Dynamic Plantar Aesthesiometer (Ugo Basile, Varese, Italy) 15 min after capsaicin or saline administration (i.e., 45 min after the injection of the experimental drug). Briefly, a nonflexible filament (0.5 mm diameter) was electronically driven into the ventral side of the right hind paw (which was previously injected with capsaicin or vehicle) at least 5 mm away from the site of the injection toward the fingers. The intensity of the stimulation was fixed at 0.5 g force, as described previously.[49],[50] When a paw withdrawal response occurred, the stimulus was automatically terminated and the response latency was recorded. The filament was applied three times at intervals of 0.5 min, and the mean value of the three trials was considered the withdrawal latency time of the animal.

Assay [3] concerns the target T2, S1R. As to the kind of experiment: S1R functional assay: S1R radioligand binding with or without phenytoin. Conditions: for ratio Ki (nM) control/+ phenythoin: >1 agonist, ≤1 antagonist; for S1R functional profile in vitro (phenytoin assay): concluded from Ki ratio control/with phenytoin. Set-up: incubating 200 μL of membrane preparation with 50 μL of 20 nM; from tissue; host or cells: membrane preparation. On the procedure:
In order to further asses the functional profile of compounds 4b, 5b, and 8f, the well-established phenytoin-based functional assay was carried out.[52] Previous studies have shown that phenytoin, a low-potent allosteric modulator for the S1R, differentially modulates the affinity of S1R ligands depending on their agonist versus antagonist functionality.
The functionality of compounds 4b, 5b, and 8f on S1R was determined using the same radiolabeled binding assay for the S1R in the presence of phenytoin. […] The final volume was 0.5 mL.

The mark [4] stands for this setting: with phenytoin (20 μL of 25 mM in 0.5 mL), 120 min at 37 °C, read-out: Ki (nM) + phenythoin.
[5] abbreviates: without phenytoin, read-out: Ki (nM) control.

T2 sequence (Q9R0C9 whole entry): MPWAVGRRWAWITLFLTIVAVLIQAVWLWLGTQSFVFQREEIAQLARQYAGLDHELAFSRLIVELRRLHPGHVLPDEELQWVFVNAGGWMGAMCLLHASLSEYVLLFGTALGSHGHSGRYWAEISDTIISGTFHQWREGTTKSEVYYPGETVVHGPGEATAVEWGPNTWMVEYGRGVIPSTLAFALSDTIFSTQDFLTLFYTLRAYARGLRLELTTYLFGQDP

As for `c1ccc(CCN2CC3(CCN(c4ccccc4)CC3)C2)cc1` [4a, 2-Phenethyl-7-phenyl-2,7-diazaspiro[3.5]nonane], on S2R, the Ki was determined as 77 ± 12 nM. Moreover, on S1R [1], the “KiS2R/KiS1R (preference for S1R over S2R)” value is given as 2.8 and the Ki was determined as 28 ± 2 nM.
Take `c1ccc(CCN2CC3(CCN(Cc4ccccc4)CC3)C2)cc1` [4b, 7-Benzyl-2-phenethyl-2,7-diazaspiro[3.5]nonane]: in assay [2] (4b 2.5–10 mg/kg s.c. associated with BD-1063 40 mg/kg s.c.), the “effect on the antiallodynic effect of BD-1063” value is “fully reverse the antiallodynic effect of BD-1063”. For the same compound, the “S1R functional profile in vivo” value in assay [2] is recorded as “S1R agonistic in vivo effect”. Besides, in assay [2], the “antiallodynic effect, compound administered alone” value is “completely devoid of antiallodynic effect; also recorded: no antiallodynic effect”. The Ki at S2R stood at 27 ± 5.3 nM; at S1R [3] (setting [4]), 1.2 nM; on S1R [3] (setting [5]), 3.2 nM; on S1R [1], 2.7 ± 0.3 nM. The “ratio Ki (nM) control/+ phenythoin” value at S1R [3] amounted to 2.6. The “S1R functional profile in vitro (phenytoin assay)” value (from here on “S1R functional profile in vitro”) at S1R [3] is on record as “agonist profile for the S1R”. Also, the “KiS2R/KiS1R (preference for S1R over S2R)” value at S1R [1] is approximately 10.
In the case of `c1ccc(CCN2CCC3(CC2)CN(CCc2ccccc2)C3)cc1` [4c, 2,7-Diphenethyl-2,7-diazaspiro[3.5]nonane], the Ki at S2R stood at 22 ± 2.5 nM; at S1R [1], 3.5 ± 0.3 nM. On S1R [1], the “KiS2R/KiS1R (preference for S1R over S2R)” value is 6.3.
On to `c1ccc(CCCN2CC3(CCN(c4ccccc4)CC3)C2)cc1` [4d, 7-Phenyl-2-(3-phenylpropyl)-2,7-diazaspiro[3.5]nonane], for which, at S2R, the inhibition constant Ki came to 51 ± 5 nM. For the same compound, at S1R [1], the “KiS2R/KiS1R (preference for S1R over S2R)” value was found to be 1.5 and the Ki was found to be 34 ± 7.7 nM.
For `c1ccc(CCCN2CC3(CCN(Cc4ccccc4)CC3)C2)cc1` [4e, 7-Benzyl-2-(3-phenylpropyl)-2,7-diazaspiro[3.5]nonane] the same measures were 31 ± 5.4 nM, 4.3 and 7.2 ± 0.5 nM.
Consider `c1ccc(CCCN2CC3(CCN(CCc4ccccc4)CC3)C2)cc1` [4f, 7-Phenethyl-2-(3-phenylpropyl)-2,7-diazaspiro[3.5]nonane], for which, on S2R, the Ki is 149 ± 27 nM. For the same compound, at S1R [1], the “KiS2R/KiS1R (preference for S1R over S2R)” value came to 1.2 and the Ki is 126 ± 22 nM.
For `O=C(c1ccccc1)N1CCC2(CC1)CN(CCc1ccccc1)C2` [5a, (2-Phenethyl-2,7-diazaspiro[3.5]nonan-7-yl)(phenyl)methanone], the Ki on S2R was 255 ± 62 nM. Moreover, at S1R [1], the “KiS2R/KiS1R (preference for S1R over S2R)” value is reported as 6.8 and the Ki worked out at 37 ± 9.6 nM.
Consider `O=C(Cc1ccccc1)N1CCC2(CC1)CN(CCc1ccccc1)C2` [5b, 1-(2-Phenethyl-2,7-diazaspiro[3.5]nonan-7-yl)-2-phenylethan-1-one], for which, in assay [2], the “antiallodynic effect when associated with the S1R agonist PRE-084” value is listed as “abolish the antiallodynic effect; also recorded: completely reversed their antiallodynic action”; the “S1R functional profile in vivo” value is “S1R antagonistic in vivo effect”; the “antiallodynic effect, compound administered alone” value is recorded as “mimicked the effect of the known S1R antagonist”; the “dose reaching full reversal of mechanical hypersensitivity (maximum antiallodynic effect)” value came to 20 mg/kg. In addition, the Ki at S2R amounted to 102 ± 26 nM. Further, on S1R [3], the “ratio Ki (nM) control/+ phenythoin” value stood at 0.9 and the “S1R functional profile in vitro” value was “antagonists for the S1R”. Besides, the Ki at S1R [3] (setting [4]) came to 14 nM. Also, on S1R [3] (setting [5]), the Ki came to 12 nM. In addition, at S1R [1], the “KiS2R/KiS1R (preference for S1R over S2R)” value came out at 7.8 and the Ki was found to be 13 ± 2.5 nM.
`c1ccc(CN2CCCC3CN(c4ccccc4)CC32)cc1` (stereo not shown) [8a, 1-Benzyl-6-phenyloctahydro-1H-pyrrolo[3,4-b]pyridine]: the values for the Ki at S2R and at S1R [1] were 148 ± 29 nM and 254 ± 32 nM, respectively. The “KiS2R/KiS1R (preference for S1R over S2R)” value on S1R [1] is given as 0.6.
For `c1ccc(CCN2CCCC3CN(c4ccccc4)CC32)cc1` (stereo not shown) [8b, 1-Phenethyl-6-phenyloctahydro-1H-pyrrolo[3,4-b]pyridine] the same measures were 279 ± 83 nM, 505 ± 88 nM and 0.6.
For the compound `c1ccc(CCN2CCCC3CN(Cc4ccccc4)CC32)cc1` (stereo not shown) [8c, 6-Benzyl-1-phenethyloctahydro-1H-pyrrolo[3,4-b]pyridine], the values for the Ki at S2R and on S1R [1] were 126 ± 19 nM and 19 ± 2.6 nM, respectively.
With `c1ccc(CCN2CC3CCCN(CCc4ccccc4)C3C2)cc1` (stereo not shown) [8d, 1,6-Diphenethyloctahydro-1H-pyrrolo[3,4-b]pyridine], the Ki on S2R is 114 ± 15 nM. Further, on S1R [1], the “KiS2R/KiS1R (preference for S1R over S2R)” value was 0.07 and the Ki came to 1730 ± 403 nM.
For `c1ccc(CCCN2CCCC3CN(c4ccccc4)CC32)cc1` (stereo not shown) [8e, 6-Phenyl-1-(3-phenylpropyl)octahydro-1H-pyrrolo[3,4-b]pyridine] the same measures were 91 ± 5.8 nM, 0.8 and 108 ± 31 nM.
For `c1ccc(CCCN2CCCC3CN(CCc4ccccc4)CC32)cc1` (stereo not shown) [8g, 6-Phenethyl-1-(3-phenylpropyl)octahydro-1H-pyrrolo[3,4-b]pyridine], in that order: 1030 ± 200 nM, 1.4 and 710 ± 150 nM.
Turning to `CN1CCN(CCc2ccc(Cl)c(Cl)c2)CC1.Cl.Cl` [BD-1063, 1-[2-(3,4-dichlorophenyl)ethyl]-4-methylpiperazine dihydrochloride, reference compound], in assay [2], the “antiallodynic effect when associated with the S1R agonist PRE-084” value is reported as “abolish the antiallodynic effect”; the “antiallodynic effect, compound administered alone” value was “full and dose-dependent reduction of mechanical hypersensitivity”; the “dose reaching full reversal of mechanical hypersensitivity (maximum antiallodynic effect)” value came out at 40 mg/kg. For the same compound, the “ratio Ki (nM) control/+ phenythoin” value on S1R [3] was 0.7. Further, the Ki at S1R [3] (setting [4]) came out at 10 nM. Further, the Ki on S1R [3] (setting [5]) came to 6.7 nM.
In the case of `Cl.O=C(OCCN1CCOCC1)C1(c2ccccc2)CCCCC1` [PRE-084, 2-(4-morpholinethyl)-1-phenyl cyclohexane carboxylate hydrochloride, reference compound], the “antiallodynic effect, compound administered alone” value in assay [2] is “did not modify the response latency”.
In the case of `C=CCN1CC[C@]2(C)c3cc(O)ccc3C[C@H]1[C@H]2C` [SKF-10,047, reference compound], at S1R [3], the “ratio Ki (nM) control/+ phenythoin” value was 5.8 and the “S1R functional profile in vitro” value is given as “agonist profile for the S1R”. Moreover, on S1R [3] (setting [4]), the Ki was 17 nM. Besides, on S1R [3] (setting [5]), the Ki was 99 nM.
